Reference: ChEMBL document CHEMBL1152440, “Discovering potent small molecule inhibitors of cyclophilin A using de novo drug design approach” (J Med Chem, 2009)

Molecular target: Peptidyl-prolyl cis-trans isomerase A (Homo sapiens, UniProt P62937)
Sequence (P62937 whole entry): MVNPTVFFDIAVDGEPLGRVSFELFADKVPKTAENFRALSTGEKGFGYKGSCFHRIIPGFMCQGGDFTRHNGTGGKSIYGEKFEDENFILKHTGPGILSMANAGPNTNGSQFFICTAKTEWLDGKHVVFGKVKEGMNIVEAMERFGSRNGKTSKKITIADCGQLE
Description: Inhibition of peptidyl-prolyl isomerase activity of Cyclophilin A

Row | IC50 | Compound
1 | Not Active | O=C(NC(=O)c1c(F)cccc1OCc1ccccc1)NC1c2ccccc2-c2ccccc21
2 | Not Active | O=C(NCCc1ccccc1)NC(=O)c1c(O)cccc1O
3 | Not Active | O=C(NC(=O)c1ccccc1)NC1c2ccccc2-c2ccccc21

The remaining lines, values behind:

Row | Compound | IC50
4 | COc1cccc(F)c1C(=O)NC(=O)NC1c2ccccc2-c2ccccc21 | Not Active
5 | Cc1ccccc1C(=O)NC(=O)NC1c2ccccc2-c2ccccc21 | Not Active
